Experiment: Solubility experiment in cyclohexanone (CHON)
Format: physicochemical
Settings: normal temperature/pressure, whether 0.1 wt % or more was dissolved
Protocol: In order to confirm the solubility in the solvent used in the solution process of the compounds prepared in the Preparation Examples and the comparative compounds, each of them was dissolved in the solvent cyclohexanone (CHON) under normal temperature/pressure conditions, and it was confirmed whether 0.1 wt % or more was dissolved.

Cc1cccc(N(c2ccc3c4c5ccc6c(c5ccc4n(-c4ccccc4)c3c2)c2ccc(Oc3ccc(-c4cc(-c5ccc(Oc7ccc8c9c%10ccc%11c(c%10ccc9n(-c9ccccc9)c8c7)c7ccc(N(c8cccc(C)c8)c8cccc9c8oc8ccccc89)cc7n%11-c7ccccc7)cc5)cc(-c5ccc(Oc7ccc8c9c%10ccc%11c(c%10ccc9n(-c9ccccc9)c8c7)c7ccc(N(c8cccc(C)c8)c8cccc9c8oc8ccccc89)cc7n%11-c7ccccc7)cc5)c4)cc3)cc2n6-c2ccccc2)c2cccc3c2oc2ccccc23)c1 [Compound 16]
Solubility, Solvent CHON: ○ (Evaluation list (○): 0.1 wt. % or more soluble)

Cc1cccc(N(c2ccc3c4c5ccc6c(c5ccc4n(-c4ccccc4)c3c2)c2ccc(Oc3cc(Oc4ccc5c7c8ccc9c(c8ccc7n(-c7ccccc7)c5c4)c4ccc(N(c5cccc(C)c5)c5cccc7c5oc5ccccc57)cc4n9-c4ccccc4)cc(Oc4ccc5c7c8ccc9c(c8ccc7n(-c7ccccc7)c5c4)c4ccc(N(c5cccc(C)c5)c5cccc7c5oc5ccccc57)cc4n9-c4ccccc4)c3)cc2n6-c2ccccc2)c2cccc3c2oc2ccccc23)c1 [Compound 14]
Solubility, Solvent CHON: ○ (Evaluation list (○): 0.1 wt. % or more soluble)

Cc1cccc(N(c2ccc3c4c5ccc6c(c5ccc4n(-c4ccccc4)c3c2)c2ccc(-c3cc(-c4ccc5c7c8ccc9c(c8ccc7n(-c7ccccc7)c5c4)c4ccc(N(c5cccc(C)c5)c5cccc7c5oc5ccccc57)cc4n9-c4ccccc4)cc(-c4ccc5c7c8ccc9c(c8ccc7n(-c7ccccc7)c5c4)c4ccc(N(c5cccc(C)c5)c5cccc7c5oc5ccccc57)cc4n9-c4ccccc4)c3)cc2n6-c2ccccc2)c2cccc3c2oc2ccccc23)c1 [Compound 4]
Solubility, Solvent CHON: ○ (Evaluation list (○): 0.1 wt. % or more soluble)

Cc1cccc(N(c2ccc3c4c5ccc6c(c5ccc4n(-c4ccccc4)c3c2)c2ccc(Oc3cccc(-c4cc(-c5cccc(Oc7ccc8c9c%10ccc%11c(c%10ccc9n(-c9ccccc9)c8c7)c7ccc(N(c8cccc(C)c8)c8cccc9c8oc8ccccc89)cc7n%11-c7ccccc7)c5)cc(-c5cccc(Oc7ccc8c9c%10ccc%11c(c%10ccc9n(-c9ccccc9)c8c7)c7ccc(N(c8cccc(C)c8)c8cccc9c8oc8ccccc89)cc7n%11-c7ccccc7)c5)c4)c3)cc2n6-c2ccccc2)c2cccc3c2oc2ccccc23)c1 [Compound 15]
Solubility, Solvent CHON: ○ (Evaluation list (○): 0.1 wt. % or more soluble)

CC(C)(C)c1ccc(N(c2ccc(C(C)(C)C)cc2)c2ccc3c4c5ccc6c(c5ccc4n(-c4ccccc4)c3c2)c2ccc(-c3cc(-c4ccc5c7c8ccc9c(c8ccc7n(-c7ccccc7)c5c4)c4ccc(N(c5ccc(C(C)(C)C)cc5)c5ccc(C(C)(C)C)cc5)cc4n9-c4ccccc4)cc(-c4ccc5c7c8ccc9c(c8ccc7n(-c7ccccc7)c5c4)c4ccc(N(c5ccc(C(C)(C)C)cc5)c5ccc(C(C)(C)C)cc5)cc4n9-c4ccccc4)c3)cc2n6-c2ccccc2)cc1 [Compound 5]
Solubility, Solvent CHON: ○ (Evaluation list (○): 0.1 wt. % or more soluble)

Cc1cccc(N(c2cccc3c2oc2ccccc23)c2cccc3c2c2c4ccc5c(c4ccc2n3-c2ccccc2)c2c(N(c3cccc4c3c3c6ccc7c(c6ccc3n4-c3ccccc3)c3c(N(c4cccc(C)c4)c4cccc6c4oc4ccccc46)cccc3n7-c3ccccc3)c3cccc4c3c3c6ccc7c(c6ccc3n4-c3ccccc3)c3c(N(c4cccc(C)c4)c4cccc6c4oc4ccccc46)cccc3n7-c3ccccc3)cccc2n5-c2ccccc2)c1 [Compound 19]
Solubility, Solvent CHON: ○ (Evaluation list (○): 0.1 wt. % or more soluble)

c1ccc(-n2c3ccccc3c3cc(-c4ccc(N(c5ccc6ccccc6c5)c5ccc6c7c8ccc9c(c8ccc7n(-c7ccccc7)c6c5)c5ccc(N(c6ccc7c8c%10ccc%11c(c%10ccc8n(-c8ccccc8)c7c6)c6ccc(N(c7ccc(-c8ccc%10c(c8)c8ccccc8n%10-c8ccccc8)cc7)c7ccc8ccccc8c7)cc6n%11-c6ccccc6)c6ccc7c8c%10ccc%11c(c%10ccc8n(-c8ccccc8)c7c6)c6ccc(N(c7ccc(-c8ccc%10c(c8)c8ccccc8n%10-c8ccccc8)cc7)c7ccc8ccccc8c7)cc6n%11-c6ccccc6)cc5n9-c5ccccc5)cc4)ccc32)cc1 [Compound 3]
Solubility, Solvent CHON: ○ (Evaluation list (○): 0.1 wt. % or more soluble)

CC(C)(C)c1ccc(N(c2ccc(C(C)(C)C)cc2)c2ccc3c4c5ccc6c(c5ccc4n(-c4ccccc4)c3c2)c2ccc(N(c3ccc(C(C)(C)C)cc3)c3cc(N(c4ccc(C(C)(C)C)cc4)c4ccc5c7c8ccc9c(c8ccc7n(-c7ccccc7)c5c4)c4ccc(N(c5ccc(C(C)(C)C)cc5)c5ccc(C(C)(C)C)cc5)cc4n9-c4ccccc4)cc(N(c4ccc(C(C)(C)C)cc4)c4ccc5c7c8ccc9c(c8ccc7n(-c7ccccc7)c5c4)c4ccc(N(c5ccc(C(C)(C)C)cc5)c5ccc(C(C)(C)C)cc5)cc4n9-c4ccccc4)c3)cc2n6-c2ccccc2)cc1 [Compound 12]
Solubility, Solvent CHON: ○ (Evaluation list (○): 0.1 wt. % or more soluble)

Cc1cccc(N(c2ccc3c(c2)c2c4ccc5c(c4ccc2n3-c2ccccc2)c2cc(N(c3ccc4c(c3)c3c6ccc7c(c6ccc3n4-c3ccccc3)c3cc(N(c4cccc(C)c4)c4cccc6c4oc4ccccc46)ccc3n7-c3ccccc3)c3ccc4c(c3)c3c6ccc7c(c6ccc3n4-c3ccccc3)c3cc(N(c4cccc(C)c4)c4cccc6c4oc4ccccc46)ccc3n7-c3ccccc3)ccc2n5-c2ccccc2)c2cccc3c2oc2ccccc23)c1 [Compound 17]
Solubility, Solvent CHON: ○ (Evaluation list (○): 0.1 wt. % or more soluble)

Cc1cccc(N(c2ccc3c4c5ccc6c(c5ccc4n(-c4ccccc4)c3c2)c2ccc(N(c3ccc4c5c7ccc8c(c7ccc5n(-c5ccccc5)c4c3)c3ccc(N(c4cccc(C)c4)c4cccc5c4oc4ccccc45)cc3n8-c3ccccc3)c3ccc4c5c7ccc8c(c7ccc5n(-c5ccccc5)c4c3)c3ccc(N(c4cccc(C)c4)c4cccc5c4oc4ccccc45)cc3n8-c3ccccc3)cc2n6-c2ccccc2)c2cccc3c2oc2ccccc23)c1 [Compound 1]
Solubility, Solvent CHON: ○ (Evaluation list (○): 0.1 wt. % or more soluble)
